Measured values: patent publication US10765654B2, “Methods and compounds for treating cancer” (University of Vermont and State Agricultural College, priority 2011, dated 2020)

Test system: OG35 oligodendroglioma GSCs
Assay: Orthotopic graft in athymic mice, survival and bioluminescent imaging
Format: in vivo
Conditions: OG35 engrafted mice
Description: Cells (2,500 cells in 4 μl) were injected into the right striatum (1 mm anterior, 1.5 mm lateral to bregma, 3.5 mm deep) of adult athymic mice (8-week-old, 25-28 g). […]
For in vivo imaging, mice were injected i.p. with 150 mg/kg D-luciferin potassium salt 5 minutes prior to imaging under 1.5% inhaled isoflurane. Peak efflux was determined from an average of 15 bioluminescent acquisitions, with 1 min inter-acquisition intervals, using the auto-exposure setting. Total photon efflux was determined by drawing regions of interest over the emitted region and setting thresholds for each mouse to maximize the number of pixels encircled using Living Image acquisition and analysis software (Version 3.0.3.5, Caliper Life Sciences, Hopkinton, Mass.). […]
Tumor bioluminescence (rate of flux change over time) and tumor volume were compared using a Mann-Whitney test. Survival was analyzed using Kaplan-Meier curves [Kaplan, EL and P Meier. (1958) J Am Stat Assoc 53:457-481] and comparisons between groups were analyzed with a log-rank test [Peto, R and J Peto. […]

SMILES: CC(=O)OCC(COC(C)=O)OC(C)=O [GTA, glyceryltriacetate]
- Survival (GTA alone 5.8 g/kg intragastrically daily): did not significantly increase survival
- Time to tumor regrowth after termination of TMZ treatment (GTA with TMZ, bioluminescent imaging): significantly delayed
